Test system: EphB4 and Crk1
Assay: Phosphorylation of EphB4 and Crk1 in A2780cp20 cells (IP/immunoblot)
Assay type: cell-based, human
Method: FIGS. 2A-C: BIDEN-AP acts as an EphB4 agonist. (FIG. 2A) BIDEN-AP induced phosphorylation of EphB4 and the associated […] (Crk1). After 16 h serum starvation, A2780cp20 cells were incubated with EFNB2-Fc (20 nM), TNYL-RAW (SEQ ID NO: 12) (50 μM), or BIDEN-AP (50 μM) for 30 min or 2 h. The uncropped blots were available at Supplemental FIG. 11. (FIG. 2B) BIDEN-AP inhibited A2780cp20 cell invasion compared to untreated control (CTL). A modified Boyden transwell chamber coated with human defined matrigel was used. Experiments were performed in triplicate. Data are presented as mean±SD. ***p<0.001. (FIG. 2C) Alexa647-BIDEN-AP was internalized via receptor-mediated endocytosis. A2780cp20 cells were incubated at 37° C. with Alexa647-BIDEN-AP (0.05 μM), Alexa647-TNYL-RAW (SEQ ID NO: 12) (0.05 μM), or Alexa647-BIDEN-AP (0.05 μM) plus unlabeled TNYL-RAW (SEQ ID NO: 12) (5 μM, blocking). Alexa647-BIDEN-AP but not Alexa647-TNYL-RAW (SEQ ID NO: 12) was internalized into the A2780cp20 cells.
Total protein lysates were harvested and subjected to Nupage-SDS separation followed by immunoblotting. […] CTL, untreated control. The uncropped blots were available at Supplemental FIG. 11.
Immunoblotting, immunoprecipitation, and co-immunoprecipitation. […] The protein concentrations were determined by using a BCA Protein Assay Reagent kit (Pierce Biotechnology, Rockford, IL). […]

CCPM-BIDEN-AP: nano-conjugate of Cys-BIDEN-AP on core-crosslinked polymeric micelles via maleimide (GMBS) (CTNYLFSPNGPIARAW; D-residues)
phosphorylation of EphB4 and Crk1 in vitro: induce EphB4 and Crk1 phosphorylation
